# Measured values reported in PubChem BioAssay (NCI).
#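 Five compound concentrations were applied to cells in 96-well plates for 48 hours; endpoints were derived by simple linear interpolation of the resulting dose-response curve. TGI denotes the concentration required for complete inhibition of growth.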
# Key:
# Assay in all cases: NCI tumour cell line growth inhibition, 48 h
# [1] = tested on: SF-268 CNS
# [2] = tested on: DMS 273 small cell lung
# [3] = tested on: UACC-62 melanoma
# [4] = tested on: MOLT-4 leukemia
# [5] = tested on: EKVX NSCLC
# [6] = tested on: SF-539 CNS
# [7] = tested on: HL-60(TB) leukemia
# [8] = tested on: RXF-631 renal
# [9] = tested on: 786-0 renal
# [10] = tested on: MALME-3M melanoma
# [11] = tested on: SN12C renal
# [12] = tested on: HCC-2998 colon
# [13] = tested on: DLD-1 colon
# [14] = tested on: NCI-H460 lung
# [15] = tested on: UACC-257 melanoma
# [16] = tested on: SK-MEL-2 melanoma
# [17] = tested on: A549 NSCLC
# [18] = tested on: TK-10 renal
# [19] = tested on: CCRF-CEM leukemia
# [20] = tested on: K-562 leukemia
# [21] = tested on: ACHN renal
# [22] = tested on: SF-295 CNS
# [23] = tested on: XF 498 CNS
# [24] = tested on: NCI-H226 lung
# [25] = tested on: A498 renal
# [26] = tested on: RXF 393 renal
# [27] = tested on: SNB-19 CNS
# [28] = tested on: DMS 114 small cell lung
# [29] = tested on: SR leukemia
# [30] = tested on: OVCAR-3 ovarian
# [31] = tested on: NCI-H23 lung
# [32] = tested on: SNB-75 CNS
# [33] = tested on: HCT-116 colon
# [34] = tested on: OVCAR-4 ovarian
# [35] = tested on: HCT-15 colon
# [36] = tested on: U251 CNS
# [37] = tested on: LOX IMVI melanoma
# [38] = tested on: LXFL 529 NSCLC
# [39] = tested on: RPMI-8226 leukemia
# [40] = tested on: HOP-62 NSCLC
# [41] = tested on: SW-620 colon
# [42] = tested on: M14 melanoma
# [43] = tested on: UO-31 renal
# [44] = tested on: M19-MEL melanoma
# [45] = tested on: KM20L2 colon
# [46] = tested on: IGROV1 ovarian
# [47] = tested on: OVCAR-8 ovarian
# [48] = tested on: SK-MEL-5 melanoma
# [49] = tested on: HT29 colon
# [50] = tested on: SK-MEL-28 melanoma
# [51] = tested on: COLO 205 colon
# [52] = tested on: HOP-92 NSCLC
# [53] = tested on: KM12 colon
# [54] = tested on: SNB-78 CNS
# [55] = tested on: NCI-H522 lung
# [56] = tested on: CAKI-1 renal
# [57] = tested on: SK-OV-3 ovarian
# [58] = tested on: OVCAR-5 ovarian
# [59] = tested on: HOP-18 NSCLC
smiles,measurement,setting,value
COC(=O)CC(NC(=O)OCc1ccccc1)C(C(=O)OCc1ccccc1)C1(C)OCCO1 (stereo not drawn),TGI,[1],> 100 µM
same,TGI,[2],> 100 µM
same,TGI,[3],59.7 µM
same,TGI,[4],57.3 µM
same,TGI,[5],> 100 µM
same,TGI,[6],> 100 µM
same,TGI,[7],62.6 µM
same,TGI,[8],> 100 µM
same,TGI,[9],> 100 µM
same,TGI,[10],> 100 µM
same,TGI,[11],> 100 µM
same,TGI,[12],> 100 µM
same,TGI,[13],> 100 µM
same,TGI,[14],> 100 µM
same,TGI,[15],> 100 µM
same,TGI,[16],43.8 µM
same,TGI,[17],> 100 µM
same,TGI,[18],> 100 µM
same,TGI,[19],> 100 µM
same,TGI,[20],> 100 µM
same,TGI,[21],> 100 µM
same,TGI,[22],> 100 µM
same,TGI,[23],42.3 µM
same,TGI,[24],94.1 µM
same,TGI,[25],> 100 µM
same,TGI,[26],> 100 µM
same,TGI,[27],> 100 µM
same,TGI,[28],82.6 µM
same,TGI,[29],58.2 µM
same,TGI,[30],> 100 µM
same,TGI,[31],> 100 µM
same,TGI,[32],73.2 µM
same,TGI,[33],> 100 µM
same,TGI,[34],> 100 µM
same,TGI,[35],> 100 µM
same,TGI,[36],> 100 µM
same,TGI,[37],> 100 µM
same,TGI,[38],73 µM
same,TGI,[39],73.7 µM
same,TGI,[40],> 100 µM
same,TGI,[41],> 100 µM
same,TGI,[42],> 100 µM
same,TGI,[43],61.1 µM
same,TGI,[44],> 100 µM
same,TGI,[45],> 100 µM
same,TGI,[46],> 100 µM
same,TGI,[47],> 100 µM
same,TGI,[48],32.7 µM
same,TGI,[49],> 100 µM
same,TGI,[50],> 100 µM
same,TGI,[51],36.5 µM
Cc1cc([N+](=O)[O-])c(S(=O)(=O)c2ccccc2)c([N+](=O)[O-])c1,TGI,[1],50.4 µM
same,TGI,[52],5.28 µM
same,TGI,[2],32.1 µM
same,TGI,[3],> 44.3 µM
same,TGI,[4],> 28.9 µM
same,TGI,[53],32.1 µM
same,TGI,[5],> 72.5 µM
same,TGI,[6],32.6 µM
same,TGI,[7],10.7 µM
same,TGI,[8],> 100 µM
same,TGI,[9],12.3 µM
same,TGI,[10],27.9 µM
same,TGI,[11],18.3 µM
same,TGI,[12],35.7 µM
same,TGI,[13],17 µM
same,TGI,[14],28.2 µM
same,TGI,[15],5.16 µM
same,TGI,[16],47.6 µM
same,TGI,[17],41.3 µM
same,TGI,[18],32.4 µM
same,TGI,[19],> 28 µM
same,TGI,[20],> 100 µM
same,TGI,[21],33.4 µM
same,TGI,[22],36.9 µM
same,TGI,[23],27.6 µM
same,TGI,[24],41.9 µM
same,TGI,[25],35.6 µM
same,TGI,[26],4.8 µM
same,TGI,[27],32.9 µM
same,TGI,[54],48.6 µM
same,TGI,[28],9.63 µM
same,TGI,[55],3.14 µM
same,TGI,[29],> 100 µM
same,TGI,[30],11.4 µM
same,TGI,[31],26.2 µM
same,TGI,[32],47.3 µM
same,TGI,[56],10.3 µM
same,TGI,[33],22.5 µM
same,TGI,[34],24.5 µM
same,TGI,[35],35.3 µM
same,TGI,[36],26.6 µM
same,TGI,[37],6.51 µM
same,TGI,[38],10.6 µM
same,TGI,[39],45.9 µM
same,TGI,[57],74.7 µM
same,TGI,[40],40 µM
same,TGI,[41],10.1 µM
same,TGI,[58],33.6 µM
same,TGI,[42],17.6 µM
same,TGI,[43],31 µM
same,TGI,[59],29.6 µM
same,TGI,[44],26.3 µM
same,TGI,[45],37.3 µM
same,TGI,[46],31.1 µM
same,TGI,[47],> 62.5 µM
same,TGI,[48],27.8 µM
same,TGI,[49],19.1 µM
same,TGI,[50],40.9 µM
same,TGI,[51],24 µM
CC(c1ccccc1)N1CC(C)(c2ccccc2)N(O)C(c2ccccc2)C1C (stereo not drawn),TGI,[1],31.3 µM
same,TGI,[52],8.36 µM
same,TGI,[2],> 100 µM
same,TGI,[4],29.8 µM
same,TGI,[53],> 100 µM
same,TGI,[5],62.1 µM
same,TGI,[6],26.5 µM
same,TGI,[7],13.5 µM
same,TGI,[8],82 µM
same,TGI,[9],30.2 µM
same,TGI,[10],66.2 µM
same,TGI,[12],36.9 µM
same,TGI,[13],> 100 µM
same,TGI,[14],27 µM
same,TGI,[15],45.1 µM
same,TGI,[16],28 µM
same,TGI,[17],37.8 µM
same,TGI,[18],> 100 µM
same,TGI,[19],31 µM
same,TGI,[20],> 100 µM
same,TGI,[21],45.4 µM
same,TGI,[22],37.5 µM
same,TGI,[25],85.3 µM
same,TGI,[26],36.8 µM
same,TGI,[27],> 100 µM
same,TGI,[54],89.9 µM
same,TGI,[28],45.1 µM
same,TGI,[55],32.3 µM
same,TGI,[30],40.8 µM
same,TGI,[31],56.8 µM
same,TGI,[32],55.2 µM
same,TGI,[33],11.6 µM
same,TGI,[36],32.7 µM
same,TGI,[37],30.1 µM
same,TGI,[38],37.3 µM
same,TGI,[39],62.8 µM
same,TGI,[57],87.8 µM
same,TGI,[40],38.9 µM
same,TGI,[41],68.1 µM
same,TGI,[58],> 100 µM
same,TGI,[43],10.2 µM
same,TGI,[59],51.2 µM
same,TGI,[45],44.7 µM
same,TGI,[46],> 100 µM
same,TGI,[47],> 100 µM
same,TGI,[49],> 100 µM
same,TGI,[50],21.9 µM
same,TGI,[51],23.7 µM
